Legend:
[1] = biological target: T1, Glucocorticoid receptor (Rattus norvegicus, UniProt P06536)
T1 sequence (P06536 whole entry): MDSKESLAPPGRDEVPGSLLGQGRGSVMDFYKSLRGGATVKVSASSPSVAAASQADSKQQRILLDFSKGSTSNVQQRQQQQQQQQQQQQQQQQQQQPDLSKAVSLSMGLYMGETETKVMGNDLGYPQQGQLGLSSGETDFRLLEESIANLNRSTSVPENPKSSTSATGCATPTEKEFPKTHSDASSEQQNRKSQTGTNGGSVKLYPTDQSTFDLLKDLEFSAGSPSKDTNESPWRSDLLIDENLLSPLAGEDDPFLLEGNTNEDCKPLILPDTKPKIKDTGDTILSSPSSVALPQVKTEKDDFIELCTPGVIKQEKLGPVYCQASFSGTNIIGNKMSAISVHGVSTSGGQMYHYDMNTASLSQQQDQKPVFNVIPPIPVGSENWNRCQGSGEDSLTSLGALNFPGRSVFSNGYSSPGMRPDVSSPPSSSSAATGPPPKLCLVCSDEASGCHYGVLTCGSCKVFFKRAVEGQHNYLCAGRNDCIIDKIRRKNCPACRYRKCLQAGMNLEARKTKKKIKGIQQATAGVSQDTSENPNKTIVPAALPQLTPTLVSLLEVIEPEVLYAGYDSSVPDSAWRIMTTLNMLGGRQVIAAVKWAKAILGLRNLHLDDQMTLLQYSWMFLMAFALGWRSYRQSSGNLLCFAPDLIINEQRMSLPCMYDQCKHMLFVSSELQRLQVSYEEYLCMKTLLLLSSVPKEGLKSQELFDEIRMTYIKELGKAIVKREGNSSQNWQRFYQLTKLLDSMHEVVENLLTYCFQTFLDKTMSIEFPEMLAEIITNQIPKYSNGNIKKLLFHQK

[2] = biological target: T2, Thyroid hormone receptor alpha (Rattus norvegicus, UniProt P63059)
T2 sequence (P63059 whole entry): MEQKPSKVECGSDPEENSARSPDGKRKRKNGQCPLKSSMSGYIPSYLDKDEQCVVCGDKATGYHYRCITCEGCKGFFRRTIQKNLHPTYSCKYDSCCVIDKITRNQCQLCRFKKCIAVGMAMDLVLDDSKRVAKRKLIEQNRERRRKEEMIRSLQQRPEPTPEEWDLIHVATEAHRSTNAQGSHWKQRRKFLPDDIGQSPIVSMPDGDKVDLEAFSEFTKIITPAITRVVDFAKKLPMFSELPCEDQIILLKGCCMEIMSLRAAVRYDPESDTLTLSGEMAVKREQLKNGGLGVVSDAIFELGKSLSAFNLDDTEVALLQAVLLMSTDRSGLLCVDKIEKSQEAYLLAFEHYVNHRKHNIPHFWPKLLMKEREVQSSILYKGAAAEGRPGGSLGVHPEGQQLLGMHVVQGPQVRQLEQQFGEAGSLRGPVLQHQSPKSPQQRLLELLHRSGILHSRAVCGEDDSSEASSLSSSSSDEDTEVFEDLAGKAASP

[3] = biological target: Progesterone receptor (Homo sapiens) (UniProt P06401)
[4] = biological target: T3, Thyroid hormone receptor beta (Rattus norvegicus, UniProt P18113)
T3 sequence (P18113 whole entry): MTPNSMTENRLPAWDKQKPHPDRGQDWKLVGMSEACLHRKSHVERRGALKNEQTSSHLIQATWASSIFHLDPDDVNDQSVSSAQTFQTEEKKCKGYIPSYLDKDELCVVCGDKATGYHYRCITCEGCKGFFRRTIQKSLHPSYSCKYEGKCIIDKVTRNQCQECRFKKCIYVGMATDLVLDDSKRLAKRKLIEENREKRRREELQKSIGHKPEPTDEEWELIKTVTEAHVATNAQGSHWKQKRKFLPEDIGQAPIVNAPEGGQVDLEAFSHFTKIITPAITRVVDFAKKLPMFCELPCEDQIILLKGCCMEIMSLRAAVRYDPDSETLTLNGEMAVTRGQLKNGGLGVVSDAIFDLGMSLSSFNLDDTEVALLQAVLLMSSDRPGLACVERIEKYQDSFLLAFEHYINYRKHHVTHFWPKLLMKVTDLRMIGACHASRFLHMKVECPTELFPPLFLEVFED

[5] = biological target: T4, Estrogen receptor (Rattus norvegicus, UniProt P06211)
T4 sequence (P06211 whole entry): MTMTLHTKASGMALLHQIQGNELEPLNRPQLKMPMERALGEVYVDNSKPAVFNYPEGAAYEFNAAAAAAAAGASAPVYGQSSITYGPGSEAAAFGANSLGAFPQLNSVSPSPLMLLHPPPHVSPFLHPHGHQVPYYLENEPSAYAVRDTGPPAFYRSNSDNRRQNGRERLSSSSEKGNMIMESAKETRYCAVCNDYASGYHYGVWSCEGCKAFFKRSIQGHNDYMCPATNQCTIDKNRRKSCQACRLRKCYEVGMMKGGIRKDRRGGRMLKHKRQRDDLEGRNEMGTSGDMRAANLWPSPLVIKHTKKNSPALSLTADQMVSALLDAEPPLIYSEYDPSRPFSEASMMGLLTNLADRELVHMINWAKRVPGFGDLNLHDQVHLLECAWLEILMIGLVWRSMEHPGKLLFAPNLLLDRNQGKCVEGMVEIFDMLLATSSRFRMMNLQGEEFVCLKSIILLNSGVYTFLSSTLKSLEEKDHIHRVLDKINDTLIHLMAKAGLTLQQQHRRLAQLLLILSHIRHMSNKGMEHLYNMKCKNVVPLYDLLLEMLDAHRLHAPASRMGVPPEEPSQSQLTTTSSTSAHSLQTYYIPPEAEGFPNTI

[6] = biological target: Estrogen receptor beta (Homo sapiens, UniProt Q92731)
[7] = biological target: T5, Mineralocorticoid receptor (Rattus norvegicus, UniProt P22199)
T5 sequence (P22199 whole entry): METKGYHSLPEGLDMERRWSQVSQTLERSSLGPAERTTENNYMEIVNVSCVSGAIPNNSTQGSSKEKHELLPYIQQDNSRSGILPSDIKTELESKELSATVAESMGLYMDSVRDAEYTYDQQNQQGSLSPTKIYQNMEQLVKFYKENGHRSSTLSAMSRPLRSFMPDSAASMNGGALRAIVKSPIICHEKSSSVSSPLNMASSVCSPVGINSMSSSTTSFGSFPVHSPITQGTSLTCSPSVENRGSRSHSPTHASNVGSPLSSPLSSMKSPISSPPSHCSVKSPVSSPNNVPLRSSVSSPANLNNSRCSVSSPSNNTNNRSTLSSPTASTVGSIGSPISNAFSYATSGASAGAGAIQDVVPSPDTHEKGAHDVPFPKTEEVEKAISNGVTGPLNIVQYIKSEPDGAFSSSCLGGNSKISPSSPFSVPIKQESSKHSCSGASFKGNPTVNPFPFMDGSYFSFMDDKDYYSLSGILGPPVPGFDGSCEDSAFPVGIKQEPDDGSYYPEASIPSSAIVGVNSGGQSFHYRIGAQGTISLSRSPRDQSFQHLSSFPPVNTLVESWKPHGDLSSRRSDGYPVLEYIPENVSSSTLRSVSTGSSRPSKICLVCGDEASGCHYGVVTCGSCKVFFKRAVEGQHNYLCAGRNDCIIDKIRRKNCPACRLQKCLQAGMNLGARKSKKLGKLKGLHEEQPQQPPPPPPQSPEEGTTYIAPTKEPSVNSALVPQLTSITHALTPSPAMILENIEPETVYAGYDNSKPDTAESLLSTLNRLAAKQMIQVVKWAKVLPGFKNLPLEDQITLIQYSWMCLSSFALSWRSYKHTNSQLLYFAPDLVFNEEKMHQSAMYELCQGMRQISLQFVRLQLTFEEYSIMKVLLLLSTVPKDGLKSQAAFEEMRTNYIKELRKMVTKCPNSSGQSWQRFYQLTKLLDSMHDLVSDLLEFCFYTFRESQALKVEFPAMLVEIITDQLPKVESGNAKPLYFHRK

Progesterone receptor (Homo sapiens), sequence (P06401 whole entry, looked up): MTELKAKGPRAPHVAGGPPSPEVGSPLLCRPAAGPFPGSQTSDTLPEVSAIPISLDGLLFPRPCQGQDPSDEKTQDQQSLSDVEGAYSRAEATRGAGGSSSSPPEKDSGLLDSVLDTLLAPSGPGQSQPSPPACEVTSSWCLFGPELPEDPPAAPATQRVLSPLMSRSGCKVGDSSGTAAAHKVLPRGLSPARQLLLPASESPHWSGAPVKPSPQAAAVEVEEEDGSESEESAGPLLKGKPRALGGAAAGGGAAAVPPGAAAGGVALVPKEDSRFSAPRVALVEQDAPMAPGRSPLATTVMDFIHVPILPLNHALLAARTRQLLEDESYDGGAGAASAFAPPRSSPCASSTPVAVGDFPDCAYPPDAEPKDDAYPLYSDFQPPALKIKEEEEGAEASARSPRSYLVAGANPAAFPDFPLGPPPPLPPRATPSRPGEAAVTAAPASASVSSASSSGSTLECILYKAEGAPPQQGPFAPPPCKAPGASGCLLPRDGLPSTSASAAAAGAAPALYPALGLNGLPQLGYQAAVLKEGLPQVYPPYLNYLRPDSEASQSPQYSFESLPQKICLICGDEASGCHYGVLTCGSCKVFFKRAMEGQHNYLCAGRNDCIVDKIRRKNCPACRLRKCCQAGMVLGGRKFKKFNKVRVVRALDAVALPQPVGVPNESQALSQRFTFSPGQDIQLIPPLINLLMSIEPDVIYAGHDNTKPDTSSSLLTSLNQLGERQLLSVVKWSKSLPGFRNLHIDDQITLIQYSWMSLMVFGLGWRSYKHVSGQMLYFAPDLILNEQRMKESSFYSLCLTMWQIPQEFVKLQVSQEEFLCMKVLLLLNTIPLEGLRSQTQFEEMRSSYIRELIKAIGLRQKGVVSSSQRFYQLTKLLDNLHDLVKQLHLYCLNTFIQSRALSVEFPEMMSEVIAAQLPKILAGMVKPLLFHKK
Estrogen receptor beta, sequence (Q92731 whole entry): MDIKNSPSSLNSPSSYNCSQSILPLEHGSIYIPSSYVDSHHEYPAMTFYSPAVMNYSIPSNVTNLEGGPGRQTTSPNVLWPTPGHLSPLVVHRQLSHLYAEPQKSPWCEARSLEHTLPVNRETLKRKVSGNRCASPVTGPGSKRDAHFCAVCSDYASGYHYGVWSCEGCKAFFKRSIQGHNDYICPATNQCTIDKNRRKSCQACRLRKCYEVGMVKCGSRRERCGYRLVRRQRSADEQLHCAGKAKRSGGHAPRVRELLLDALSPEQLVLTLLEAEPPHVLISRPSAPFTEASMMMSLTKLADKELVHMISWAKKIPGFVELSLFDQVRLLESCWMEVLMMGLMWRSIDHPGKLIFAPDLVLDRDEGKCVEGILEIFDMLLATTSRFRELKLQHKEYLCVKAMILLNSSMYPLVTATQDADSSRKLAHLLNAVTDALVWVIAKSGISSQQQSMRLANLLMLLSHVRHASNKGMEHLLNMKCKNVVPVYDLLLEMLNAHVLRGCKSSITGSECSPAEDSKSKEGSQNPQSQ

Ki [1] | Ki [2] | Ki [3] | Ki [4] | Ki [5] | Ki [6] | Ki [7] | Structure (SMILES)
0.27 nM | 670 nM | 0.81 nM | 1500 nM | 12 nM | 110 nM | 440 nM | CC#C[C@]1(O)CC[C@H]2[C@@H]3CCC4=CC(=O)CCC4=C3[C@@H](c3ccc(N(C)CCO[C@H]4CCC5C(C4)C[C@@H](O)C4C5C[C@H](O)C5C(C(C)CCC(=O)O)CCC45)cc3)C[C@@]21C (stereo partly specified) [A-348441]
– | > 1250 nM | – | > 2250 nM | > 200 nM | – | 640 nM | CC#C[C@]1(O)CC[C@H]2[C@@H]3CCC4=CC(=O)CCC4=C3[C@@H](c3ccc(N(C)C)cc3)C[C@@]21C [CAS_84371-65-3]

Source: BindingDB's records for doi:10.1124/jpet.104.081257 (Abbott Laboratories, 2005)
